Drawing on patent US12129237B2, “Substituted diaminocarboxamide and diaminocarbonitrile pyrimidines, compositions thereof, and methods of treatment therewith” (SIGNAL PHARMACEUTICALS, LLC, priority 2011, dated 2024), this text covers IC50 for 35 compounds.

This assay concerns the target T1, JNK1 (Homo sapiens, UniProt P45983).
T1 construct: purchased Carna Biosciences
Kind of assay: JNK1 biochemical assays (one or more of: time resolved fluorescence, Z'-LYTE Cascade, radioactive).

Setting [1] is: tested in one or more of the JNK1 biochemical assays, read-out: Act. Level (JNK1 biochemical assay IC50 activity level).
[2] abbreviates: Table 3, JNK1 IC50 activity level, read-out: Act. Level.
[3] abbreviates: one or more of the JNK1 biochemical assays, read-out: Act. Level (JNK1 IC50 activity level).
[4] abbreviates: Table 2, JNK1 IC50 activity level, read-out: Act. Level.

Structures are written as SMILES. Read-outs that look alike come from different tables or passages of the source.

T1 sequence (P45983 whole entry): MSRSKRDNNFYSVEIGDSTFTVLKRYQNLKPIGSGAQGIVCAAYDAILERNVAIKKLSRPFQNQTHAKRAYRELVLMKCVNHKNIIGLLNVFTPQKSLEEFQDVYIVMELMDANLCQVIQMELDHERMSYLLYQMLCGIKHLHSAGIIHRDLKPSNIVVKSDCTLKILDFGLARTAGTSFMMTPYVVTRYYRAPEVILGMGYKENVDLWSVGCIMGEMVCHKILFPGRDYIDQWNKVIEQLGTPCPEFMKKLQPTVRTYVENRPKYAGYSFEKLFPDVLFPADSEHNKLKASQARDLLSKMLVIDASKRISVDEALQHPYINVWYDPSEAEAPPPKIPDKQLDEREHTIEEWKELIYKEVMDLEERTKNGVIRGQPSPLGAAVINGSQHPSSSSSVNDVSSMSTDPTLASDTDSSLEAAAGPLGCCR

`CO[C@H]1CC[C@H](Nc2ncc(C(N)=O)c(N[C@H]3CCCNC3)n2)CC1` [Example A-48, 2-((1r,4S)-4-methoxycyclohexylamino)-4-((S)-piperidin-3-ylamino)pyrimidine-5-carboxamide]: under setting [1], the IC50 fell in the range of 800 to 1000 nM.
For the compound `N#Cc1cnc(NC2CCCCC2)nc1N[C@@H]1CCC[C@H](O)C1` [Example C-10, 2-(cyclohexylamino)-4-((1R,3S)-3-hydroxycyclohexylamino) pyrimidine-5-carbonitrile], the IC50 under setting [2] was below 200 nM.
Turning to `CC(C)(C)Nc1nc(NC2COC2)ncc1C(N)=O` [Example 303, 4-(tert-butylamino)-2-(oxetan-3-ylamino)pyrimidine-5-carboxamide], the IC50 under setting [3] was 200 to 800 nM.
With `NC(=O)c1cnc(NC2CCCCC2)nc1NC1CCCC1` [Example A-149, 2-(cyclohexylamino)-4-(cyclopentylamino)pyrimidine-5-carboxamide], the IC50 under setting [1] was below 200 nM.
Consider `CCO[C@H]1CC[C@H](Nc2ncc(C#N)c(N[C@H]3CCC[C@@H](O)C3)n2)CC1` [Example C-1, 2-((1r,4S)-4-ethoxycyclohexylamino)-4-((1S,3R)-3-hydroxycyclohexylamino) pyrimidine-5-carbonitrile], for which the IC50 under setting [2] lay within 200 to 800 nM.
As to `CC(C)Nc1nc(N[C@@H]2CCc3cnccc3C2)ncc1C(N)=O` [Example B-92, (R)-4-(isopropylamino)-2-(5,6,7,8-tetrahydroisoquinolin-6-ylamino)pyrimidine-5-carboxamide], the IC50 under setting [4] is below 200 nM.
On the same count and under the same terms, under `COc1ccccc1CNc1ncc(C(N)=O)c(Nc2ccccc2)n1` [Example B-60, 2-(2-methoxybenzylamino)-4-(phenylamino)pyrimidine-5-carboxamide] stands 200 to 800 nM.
In the case of `CC(C)[C@H](C)Nc1nc(N[C@H]2CC[C@H](O)CC2)ncc1C(N)=O` [Example 284, 2-((1r,4S)-4-hydroxycyclohexylamino)-4-((S)-3-methylbutan-2-ylamino)pyrimidine-5-carboxamide], the IC50 under setting [3] is below 200 nM.
On the same count and under the same terms, under `CO[C@H]1CC[C@H](Nc2ncc(C(N)=O)c(N[C@H](C)C3CC3)n2)CC1` [Example 421, 4-((R)-1-cyclopropylethylamino)-2-((1r,4R)-4-methoxycyclohexylamino)pyrimidine-5-carboxamide] stands below 200 nM; under `C[C@@H]1CC[C@@H](Nc2nc(N[C@@H](C)C(C)(C)C)ncc2C(N)=O)C[C@H]1O` [Example 469, 2-((S)-3,3-dimethylbutan-2-ylamino)-4-((1R,3R,4R)-3-hydroxy-4-methylcyclohexylamino)pyrimidine-5-carboxamide], below 200 nM.
As for `NC(=O)c1cnc(NC2CCOCC2)nc1NC1CCC1` [Example 435, 4-(cyclobutylamino)-2-(tetrahydro-2H-pyran-4-ylamino)pyrimidine-5-carboxamide], the IC50 under setting [3] was below 200 nM.
On to `CO[C@H]1CC[C@H](Nc2ncc(C#N)c(N[C@@H]3CCCC[C@@H](O)C3)n2)CC1` [Example C-42, 4-((1R,3R)-3-hydroxycycloheptylamino)-2-((1r,4R)-4-methoxycyclohexylamino) pyrimidine-5-carbonitrile], for which the IC50 under setting [2] is below 200 nM.
As to `CO[C@H]1CC[C@H](Nc2ncc(C(N)=O)c(N[C@@H](C)C(C)(C)C)n2)CC1` [Example 278, 4-((S)-3,3-dimethylbutan-2-ylamino)-2-((1r,4S)-4-methoxycyclohexylamino)pyrimidine-5-carboxamide], under setting [3], the IC50 is below 200 nM.
Take `CS(=O)(=O)N[C@H]1CC[C@H](Nc2ncc(C(N)=O)c(Nc3ccccc3)n2)CC1` [Example B-5, 2-((1r,4r)-4-(methylsulfonamido)cyclohexylamino)-4-(phenylamino)pyrimidine-5-carboxamide]: the IC50 under setting [4] is below 200 nM.
Turning to `CC1(Nc2ncc(C(N)=O)c(N[C@@H]3CCCC[C@H](O)C3)n2)CCOCC1` [Example A-181, 4-((1R,3S)-3-hydroxycycloheptylamino)-2-(4-methyltetrahydro-2H-pyran-4-ylamino)pyrimidine-5-carboxamide], the IC50 under setting [1] is below 200 nM.
Still for that read-out and setting: under `CC[C@]1(O)CCC[C@@H](Nc2nc(N[C@H]3CC[C@H](OC)CC3)ncc2C(N)=O)C1` [Example A-161, 4-((1R,3S)-3-ethyl-3-hydroxycyclohexylamino)-2-((1r,4R)-4-methoxycyclohexylamino)pyrimidine-5-carboxamide] stands below 200 nM.
`CCN(CC)c1ccc(Nc2ncc(C(N)=O)c(Nc3ccccc3)n2)cc1` [Example B-13, 2-(4-(diethylamino)phenylamino)-4-(phenylamino)pyrimidine-5-carboxamide]: the IC50 under setting [4] was below 200 nM.
For `C[C@@H]1CC[C@@H](Nc2nc(NCC(C)(C)C)ncc2C(N)=O)C[C@H]1O` [Example 367, 4-((1R,3R,4R)-3-hydroxy-4-methylcyclohexylamino)-2-(neopentylamino)pyrimidine-5-carboxamide], the IC50 under setting [3] is below 200 nM.
For the compound `CO[C@H]1CC[C@H](Nc2ncc(C#N)c(N[C@@H]3CCC[C@H]3O)n2)CC1` [Example C-18, 4-((1R,2R)-2-hydroxycyclopentylamino)-2-((1r,4R)-4-methoxycyclohexylamino) pyrimidine-5-carbonitrile], the IC50 under setting [2] is below 200 nM.
With `CCC1(Nc2nc(N[C@H]3CC[C@H](O)CC3)ncc2C(N)=O)CCCC1` [Example 455, 4-(1-ethylcyclopentylamino)-2-((1r,4r)-4-hydroxycyclohexylamino)pyrimidine-5-carboxamide], the IC50 under setting [3] is below 200 nM.
In the case of `C[C@@H]1CC[C@@H](Nc2nc(N[C@H]3CC[C@H](C(=O)N(C)C)CC3)ncc2C#N)C[C@H]1O` [Example C-47, (1R,4r)-4-(5-cyano-4-((1R,3R,4R)-3-hydroxy-4-methylcyclohexylamino)pyrimidin-2-ylamino)-N,N-dimethylcyclohexanecarboxamid], the IC50 under setting [2] is below 200 nM.
Turning to `Cc1cccc(Nc2ncc(C(N)=O)c(Nc3ccccc3)n2)c1` [Example B-28, 4-(phenylamino)-2-(m-tolylamino)pyrimidine-5-carboxamide], the IC50 under setting [4] is below 200 nM.
Turning to `CC(C)Nc1nc(N[C@H]2CC[C@H](C(=O)N(C)C)CC2)ncc1C(N)=O` [Example A-10, 2-((1r,4r)-4-(dimethylcarbamoyl)cyclohexylamino)-4-(isopropylamino)pyrimidine-5-carboxamide], the IC50 under setting [1] was below 200 nM.
For the compound `C[C@H](Nc1ncc(C(N)=O)c(N[C@H]2CC[C@@H](CO)CC2)n1)C1CCCCC1` [Example A-122, 2-((S)-1-cyclohexylethylamino)-4-((1s,4R)-4-(hydroxymethyl)cyclohexylamino)pyrimidine-5-carboxamide], under setting [1], the IC50 is below 200 nM.
Turning to `CCC(C)(C)Nc1ncc(C(N)=O)c(N[C@@H]2CC[C@@H](C)[C@H](O)C2)n1` [Example 286, 4-((1R,3R,4R)-3-hydroxy-4-methylcyclohexylamino)-2-(tert-pentylamino)pyrimidine-5-carboxamide], under setting [3], the IC50 is below 200 nM.
For `NC(=O)c1cnc(N[C@H]2CC[C@H](OCC(F)(F)F)CC2)nc1N[C@@H]1CCCOC1` [Example A-188, 4-((R)-tetrahydro-2H-pyran-3-ylamino)-2-((1r,4R)-4-(2,2,2-trifluoroethoxy)cyclohexylamino)pyrimidine-5-carboxamide], under setting [1], the IC50 is below 200 nM.
Same read-out and setting: the result for `CO[C@H]1CC[C@H](Nc2ncc(C(N)=O)c(NC3CCOCC3)n2)CC1` [Example A-55, 2-((1r,4r)-4-methoxycyclohexylamino)-4-(tetrahydro-2H-pyran-4-ylamino)pyrimidine-5-carboxamide] reads 200 to 800 nM.
`CCC1(Nc2nc(N[C@H]3CC[C@H](O)CC3)ncc2C(N)=O)CCC1` [Example 362, 4-(1-ethylcyclobutylamino)-2-((1r,4r)-4-hydroxycyclohexylamino)pyrimidine-5-carboxamide]: the IC50 under setting [3] is below 200 nM.
For `CO[C@H]1CC[C@H](Nc2ncc(C(N)=O)c(NC3CCCC3)n2)CC1` [Example A-190, 4-(cyclopentylamino)-2-((1r,4r)-4-methoxycyclohexylamino)pyrimidine-5-carboxamide], under setting [1], the IC50 was below 200 nM.
The same measure, in the same setting: under `NC(=O)c1cnc(N[C@H]2CC[C@H](OC(F)F)CC2)nc1N[C@@H]1CCC[C@H]1O` [Example A-4, 2-((1r,4R)-4-(difluoromethoxy)cyclohexylamino)-4-((1R,2R)-2-hydroxycyclopentylamino)pyrimidine-5-carboxamide] stands below 200 nM.
In the case of `C[C@@H]1CC[C@@H](Nc2nc(N[C@@H]3CCc4ncccc4C3)ncc2C(N)=O)C[C@H]1O` [Example B-94, 4-((1R,3R,4R)-3-hydroxy-4-methylcyclohexylamino)-2-((R)-5,6,7,8-tetrahydroquinolin-6-ylamino)pyrimidine-5-carboxamide], the IC50 under setting [4] is below 200 nM.
Turning to `CCCC(C)(C)Nc1nc(N[C@H]2CC[C@H](OC)CC2)ncc1C(N)=O` [Example 392, 2-((1r,4r)-4-methoxycyclohexylamino)-4-(2-methylpentan-2-ylamino)pyrimidine-5-carboxamide], the IC50 under setting [3] was below 200 nM.
`CO[C@H]1CC[C@H](Nc2ncc(C(N)=O)c(N[C@@H]3CCCC[C@@](C)(O)C3)n2)CC1` [Example A-186, 4-((1R,3R)-3-hydroxy-3-methylcycloheptylamino)-2-((1r,4R)-4-methoxycyclohexylamino)pyrimidine-5-carboxamide]: under setting [1], the IC50 is below 200 nM.
Same read-out and setting: the result for `CCO[C@H]1CC[C@H](Nc2ncc(C(N)=O)c(N[C@H]3CCC[C@@H]3O)n2)CC1` [Example A-117, 2-((1r,4S)-4-ethoxycyclohexylamino)-4-((1S,2S)-2-hydroxycyclopentylamino)pyrimidine-5-carboxamide] reads below 200 nM.
As to `C[C@]1(O)CCC[C@@H](Nc2nc(N[C@@H]3CCc4ncccc4C3)ncc2C(N)=O)C1` [Example B-101, 4-((1R,3S)-3-hydroxy-3-methylcyclohexylamino)-2-((R)-5,6,7,8-tetrahydroquinolin-6-ylamino)pyrimidine-5-carboxamide], the IC50 under setting [4] is below 200 nM.
